Patent publication US6107459A, “Technetium-99m labeled peptides for diagnostic imaging” (Diatide, Inc., priority 1995, dated 2000)
Like-named read-outs stand apart in the source and are kept apart here. Where a SMILES comes first, the peptide text is derived from it. Where no end group is shown, it is not given here. The star is where a group is joined. X1 = CC(C)(S)CNCCN(CCCCC(=O)*)CC(C)(C)S

Assays:
[1] = tested on: sites of infection (E. coli, left calf muscle); test: Scintigraphic imaging and biodistribution of Tc-99m labeled peptides in E. coli-infected rabbits; assay type: in vivo, New Zealand white rabbits; conditions: for Infected Muscle (% ID/g): Tc-99m labeled peptide i.v. (≤150 μg, 2-10 mCi), 24 h after i.m. E. coli inoculation, tissue taken after final imaging, percent injected dose per gram tissue; for Blood (% ID/g) / Control Muscle (% ID/g): rabbit, in vivo, iv; for Ratio of Infected/Blood / Ratio of Infected/Control: ratio of % ID/g; for Ratio of Infected/Blood: infected muscle tissue versus blood; for Ratio of Infected/Control: infected versus non-infected muscle tissue
Description: (§1) After 24 h, the animals were sedated by i.m. injection of ketamine and xylazine, and then injected i.v. with Tc-99m labeled peptide (≤150 μg, 2-10 mCi). The animals were positioned supine in the field of view of a gamma camera (LEAP collimator/photopeaked for Tc-99m) and imaged over the first hour post-injection, and then at approximately 1 h intervals over the next three hours post injection. Animals were allowed to recover between image acquisitions and re-anesthetized as needed.
(§2) Upon completion of the final imaging, each animal was sacrificed by overdose of phenobarbital i.v. and dissected to obtain samples of blood and of infected and control muscle tissue. The tissue samples were weighed, and along with a standard amount of the injected dose, were counted using a gamma counter, and the percent injected dose (per gram of tissue) remaining in the tissues was determined. Ratios of percent of injected dose per gram of infected versus non-infected muscle tissue, and of infected muscle tissue versus blood, were calculated for each peptide. Scintiphotos of whole body and leg images of a rabbit injected with a Tc-99m labeled reagent of the invention, having the formula

[2] = as above; assay type: in vivo, New Zealand white rabbits; conditions: rabbit, in vivo, iv
Description: as §1, §2

Ac.CGGGPLYKKIIKKLLES: Tc-99m labeled platelet factor 4-derived peptide reagent (Ac-CGGGPLYKKIIKKLLES; also: Tc-99m labeled)
Infected Muscle (% ID/g) [1]: 0.0235 % ID/g | Blood (% ID/g) [1]: 0.032 % ID/g | Control Muscle (% ID/g) [1]: 0.0050 % ID/g | Ratio of Infected/Blood [1]: 0.74 | Ratio of Infected/Control [1]: 4.70

(Ac.CCAcm GCAcm PLYKKIIKKLLES)2 BSME: PF4-derived peptide dimer linked by bis-succinimidylmethylether, Cys(Acm)-Gly-Cys(Acm) Tc-99m binding moiety
Infected Muscle (% ID/g) [1]: 0.0082 % ID/g | Blood (% ID/g) [1]: 0.010 % ID/g | Control Muscle (% ID/g) [1]: 0.0011 % ID/g | Ratio of Infected/Blood [1]: 0.84 | Ratio of Infected/Control [1]: 7.45

CC[C@H](C)[C@H](NC(=O)[C@H](CCCCN)NC(=O)[C@H](CCCCN)NC(=O)[C@H](Cc1ccc(O)cc1)NC(=O)[C@H](CC(C)C)NC(=O)[C@@H]1CCCN1C(=O)CNC(=O)CNC(=O)CCCCN(CCNCC(C)(C)S)CC(C)(C)S)C(=O)N[C@H](C(=O)N[C@@H](CCCCN)C(=O)N[C@@H](CCCCN)C(=O)N[C@@H](CC(C)C)C(=O)N[C@@H](CC(C)C)C(=O)N[C@@H](CCC(=O)O)C(=O)N[C@@H](CO)C(=O)O)[C@@H](C)CC [[BAT].GGPLYKKIIKKLLES] (X1-GGPLYKKIIKKLLES-OH; N-terminus and C-terminus assumed)
tissue uptake ([2]; Blood (% ID/g)): 0.004 %ID/g | tissue uptake ([2]; Control Muscle (% ID/g)): 0.0003 %ID/g | tissue uptake ([2]; Tc-99m labeled peptide i.v. (≤150 μg, 2-10 mCi), 24 h after i.m. E. coli inoculation, tissue taken after final imaging, percent injected dose per gram tissue, read-out: Infected Muscle (% ID/g)): 0.0021 %ID/g | Ratio of Infected/Blood [1]: 0.50 | Ratio of Infected/Control [1]: 7.00

Ac.KKKKKCAcm GCAcm GGPLYKKIIKKLLES: Tc-99m labeled platelet factor 4-derived peptide reagent
Infected Muscle (% ID/g) [1]: 0.0061 % ID/g | Scintigraphic images (FIG. 1): localization of radioactivity, infected leg versus contralateral leg ([1]; gamma camera, whole body and leg images of a rabbit injected with the Tc-99m labeled reagent): much greater extent of localization of radioactivity in the leg bearing the experimentallly-infected site compared to the non-infected contralateral leg | Blood (% ID/g) [1]: 0.006 % ID/g | Control Muscle (% ID/g) [1]: 0.0019 % ID/g | Ratio of Infected/Blood [1]: 0.93 | Ratio of Infected/Control [1]: 5.60
